Test results from US6491729B1.

Tests used:
[1] = degree of cleaning fabrics: Lab differences, whiteness and yellowness index of soil test cloth
Description: In the tests of the degree of cleaning fabrics in Examples 1 to 9, four kinds of standard soil test cloths are taken, the types of the cloth are respectively polyester, cotton, wool, polyester/cotton. The conditions of the tests of degree of cleaning fabrics are similar to those of the above dry-cleaning tests. After the soil test cloths have been dry cleaned, the reflectance, the whiteness index and the yellowness index thereof are measured by means of a color matching system to identify the degree of cleaning fabrics of the dry-cleaning solvents.
After the soil test cloths of polyester/cotton, wool, cotton and polyester are respectively dry-cleaned with the dry-cleaning solvents, the degrees of cleaning the soil test cloths of the dry-cleaning solvents is measured. The dry-cleaning procedure is carried out under the conditions that temperature is 25±2° C., liquid ratio is 1:40 and dry cleaning time is 30 minutes in a shaking manner and then the soil test cloths which have been dry-cleaned are dried under the temperature of 60±2° C.
Color differences can be analyzed according to Munsell Color Solid Theory and a bright and a chroma of a hue can be decided by means of a solid rectangular coordinate.
According to an opponent-color coordinate recommended by the CIE (Commission International de I'Eclairage) Society in 1976, wherein a redness-greenness coordinate is set to be the “a” coordinate with redness as a positive value and greenness as a negative together with a yellowness-blueness coordinate forms the “b” coordinate wherein yellowness indicates a positive value and blueness indicates a negative value, the two sets of coordinates form a two dimensional coordinate further with a third coordinate which indicates the bright to form the opponent-color coordinate designed by the CIE Lab, a bright value “L” in the third coordinate, a chroma value “a” in the redness-greenness coordinate and a chroma value “b” in the yellowness-blueness coordinate are related to red, blue, green tristimulus values as shown in the following:
ΔE=((ΔL)^2+(Δa)^2+(Δb)^2)^½
In FIG. 1, Δc indicates the chroma difference between a chroma value of a specimen sample and a chroma value of a standard sample, and Δh indicates the hue angle difference. By means of the analysis of chroma difference and hue angle difference, the two values Δc and Δh, can be easily obtained.

[2] = physical properties of the solvent; conditions: Table 1
[3] = soil test cloth of cotton, dry cleaned five times
[4] = soil test cloth of cotton, dry cleaned one time
[5] = soil test cloth of cotton, dry cleaned two times
[6] = soil test cloth of polyester/cotton, dry cleaned five times
[7] = soil test cloth of polyester/cotton, dry cleaned one time
[8] = soil test cloth of polyester/cotton, dry cleaned two times
[9] = soil test cloth of polyester, dry cleaned five times
[10] = soil test cloth of polyester, dry cleaned one time
[11] = soil test cloth of polyester, dry cleaned two times
[12] = soil test cloth of wool, dry cleaned five times
[13] = soil test cloth of wool, dry cleaned one time
[14] = soil test cloth of wool, dry cleaned two times

ClC(Cl)=C(Cl)Cl [perchloroethylene]
ΔE [1, 3]: 2.88
ΔL [1, 3]: 2.8
Δa [1, 3]: −0.02
Δb [1, 3]: −0.68
Δc [1, 3]: −0.66
Δh [1, 3]: 0.16
yellowness index ([1]; soil test cloth of cotton, dry cleaned five times, before dry cleaned 3.85): 2.18
whiteness index ([1]; soil test cloth of cotton, dry cleaned five times, before dry cleaned 39.47): 45.97
ΔE [1, 4]: 4.27
ΔL [1, 4]: 4.22
Δa [1, 4]: −0.02
Δb [1, 4]: −0.61
Δc [1, 4]: −0.6
Δh [1, 4]: 0.14
yellowness index ([1]; soil test cloth of cotton, dry cleaned one time, before dry cleaned 3.85): 2.31
whiteness index ([1]; soil test cloth of cotton, dry cleaned one time, before dry cleaned 39.47): 47.96
ΔE [1, 5]: 4.09
ΔL [1, 5]: 4.04
Δa [1, 5]: −0.04
Δb [1, 5]: −0.64
Δc [1, 5]: −0.62
Δh [1, 5]: 0.18
yellowness index ([1]; soil test cloth of cotton, dry cleaned two times, before dry cleaned 3.85): 2.23
whiteness index ([1]; soil test cloth of cotton, dry cleaned two times, before dry cleaned 39.47): 47.78
ΔE [1, 6]: 2.83
ΔL [1, 6]: 2.8
Δa [1, 6]: −0.06
Δb [1, 6]: −0.4
Δc [1, 6]: −0.39
Δh [1, 6]: 0.13
yellowness index ([1]; soil test cloth of polyester/cotton, dry cleaned five times, before dry cleaned 3.41): 2.33
whiteness index ([1]; soil test cloth of polyester/cotton, dry cleaned five times, before dry cleaned 37.82): 43.16
ΔE [1, 7]: 3.29
ΔL [1, 7]: 3.26
Δa [1, 7]: −0.04
Δb [1, 7]: −0.41
Δc [1, 7]: −0.4
Δh [1, 7]: 0.11
yellowness index ([1]; soil test cloth of polyester/cotton, dry cleaned one time, before dry cleaned 3.41): 2.32
whiteness index ([1]; soil test cloth of polyester/cotton, dry cleaned one time, before dry cleaned 37.82): 43.87
ΔE [1, 8]: 3.96
ΔL [1, 8]: 3.94
Δa [1, 8]: −0.07
Δb [1, 8]: −0.43
Δc [1, 8]: −0.41
Δh [1, 8]: 0.15
yellowness index ([1]; soil test cloth of polyester/cotton, dry cleaned two times, before dry cleaned 3.41): 2.23
whiteness index ([1]; soil test cloth of polyester/cotton, dry cleaned two times, before dry cleaned 37.82): 44.96
ΔE [1, 9]: 5.67
ΔL [1, 9]: 5.26
Δa [1, 9]: −0.14
Δb [1, 9]: −0.14
Δc [1, 9]: 0.15
Δh [1, 9]: −0.13
whiteness index ([1]; soil test cloth of polyester, dry cleaned five times, before dry cleaned 45.11): 55.02
yellowness index ([1]; soil test cloth of polyester, dry cleaned five times, before dry cleaned −10.35): −10.21
ΔE [1, 10]: 6.68
ΔL [1, 10]: 6.68
Δa [1, 10]: −0.19
Δb [1, 10]: 0.07
Δc [1, 10]: −0.06
Δh [1, 10]: −0.19
whiteness index ([1]; soil test cloth of polyester, dry cleaned one time, before dry cleaned 45.11): 56.16
yellowness index ([1]; soil test cloth of polyester, dry cleaned one time, before dry cleaned −10.35): −9.61
ΔE [1, 11]: 7.61
ΔL [1, 11]: 7.6
Δa [1, 11]: −0.17
Δb [1, 11]: −0.2
Δc [1, 11]: 0.21
Δh [1, 11]: −0.16
whiteness index ([1]; soil test cloth of polyester, dry cleaned two times, before dry cleaned 45.11): 58.86
yellowness index ([1]; soil test cloth of polyester, dry cleaned two times, before dry cleaned −10.35): −10.22
ΔE [1, 12]: 1.9
ΔL [1, 12]: −1.66
Δa [1, 12]: −0.1
Δb [1, 12]: −0.93
Δc [1, 12]: −0.9
Δh [1, 12]: 0.27
yellowness index ([1]; soil test cloth of wool, dry cleaned five times, before dry cleaned 11.22): 9
whiteness index ([1]; soil test cloth of wool, dry cleaned five times, before dry cleaned 22.57): 23.54
ΔE [1, 13]: 2.1
ΔL [1, 13]: −2.1
Δa [1, 13]: −0.04
Δb [1, 13]: −0.03
Δc [1, 13]: −0.03
Δh [1, 13]: 0.05
yellowness index ([1]; soil test cloth of wool, dry cleaned one time, before dry cleaned 11.22): 11.37
whiteness index ([1]; soil test cloth of wool, dry cleaned one time, before dry cleaned 22.57): 20.62
ΔE [1, 14]: 2.09
ΔL [1, 14]: −1.91
Δa [1, 14]: −0.09
Δb [1, 14]: −0.83
Δc [1, 14]: −0.8
Δh [1, 14]: 0.23
yellowness index ([1]; soil test cloth of wool, dry cleaned two times, before dry cleaned 11.22): 9.3
whiteness index ([1]; soil test cloth of wool, dry cleaned two times, before dry cleaned 22.57): 22.99
increase of whiteness index ([1]; soil test cloth of wool, times not stated): does not change appreciably
Dangerousness (dangerousness (Table 1)): medium toxicity
Boiling point [2]: 121 °C
Solubility [2]: Insoluble in water,
Specific gravity [2]: 1.625
